From PMC5431086, “The Rational Design of Therapeutic Peptides for Aminopeptidase N using a Substrate-Based Approach” (Scientific Reports, 2017)
Positions of bridges follow the written chain, without caps; N, C: chain ends. Non-standard residues stand in square brackets, D forms with d. Residues, ends and D or L forms follow the SMILES beside them. Primed or numbered codes have the meaning given here. No end group written: not given here. FITC′ = fluorescein isothiocyanate label; Nle = CCCC[C@H](N)C(=O)O

How the values were obtained:
DU145 cells [1] = assay: Clonogenic survival assay, DU145; assay type: cell-based
Experimental: (§1) The potential therapeutic efficacy of cyc-LHSPW was next tested in vitro using the PC3 and DU145 cell lines. […] Prior to in vivo therapeutic efficacy studies, a toxicity study was performed with the i.v. administration of cyc-LHSPW. […] Mice bearing established PC3 and DU145 xenografts were treated systemically via tail vein injection with 40 mg/kg of the tumor homing APN peptide cyc-NGR or the cyc-LHSPW peptide t.i.w. x4 (Fig. 6B). […] This therapeutic effect persisted to the end of the study with the cyc-LHSPW-treated mice having a tumor volume of 309.3 ± 92.7 mm^3 at day 35. […] PC3 tumors were removed and stained for the cellular proliferation marker Ki67.
(§2) Figure 6 The therapeutic evaluation of cyc-LHSPW in vivo and in vitro. (A) The effect of the three peptides cyc-LHSPW, LHSPW and cyc-nHSPW on the clonogenic survival of APN-expressing PC3 cells and APN-null DU145 cells. (B) Tumor growth of PC3 and DU145 xenograft mice treated with 40 mg/kg of cyc-LHSPW, cyc-NGR or saline control three times a week for four weeks. […] Statistical significance of cyc-LHSPW compared with control is denoted by: *P < 0.05; and **P < 0.01, as determined by the Student t test. […]
(§3) The clonogenic survival assays were conducted as previously described. […] Tumor measurements were made twice weekly with calipers and the tumor volume (in mm^3) was calculated by the formula 0.5236 × length (L) × width (W) × height (H). […]

hAPN (aminopeptidase N) = target: T1, hAPN (aminopeptidase N) (Homo sapiens, UniProt P15144); assay: Inhibition of cleavage of fluorogenic alanine substrate (H-Ala-AMC) by APN; assay type: biochemical
T1 construct: human APN ecdomain (residues 66–967) were expressed and purified as previously described; honeybee-melittin signal peptide (N); His6 (C); made in house; host or cells: insect cells
Experimental: Five-residue long peptides containing P1–P4′ residues from primary cleavages in the library were synthesized and tested for their ability to prevent the cleavage of a fluorogenic alanine substrate by hAPN.
The peptides used in this study were custom synthesized by AAPPTEC of Louisville, KY using traditional Fmoc solid-phase peptide synthesis. All of the peptides were purified and characterized by AAPPTEC. […] Inhibition assays were performed in triplicate in a 100 mM Tris pH 7.2, Brij 35 0.0002% w/v assay buffer at 37 °C with 0.1 μM APN and 100 μM H-Ala-AMC (fluorophore). Values were recorded by Infinite pro plate reader every 2 minutes for 30 minutes with laser parameters set for excitation at 355 nm and emission at 460 nm.

PC3 cells [2] = assay: Clonogenic survival assay, PC3; assay type: cell-based
Experimental: as §1, §2, §3

DU145 cells [3] = assay: Flow cytometry binding to APN-null DU145 cells; assay type: cell-based; conditions: 500 nmol/L, 60 minutes, 4 °C
Experimental: (§4) Next, the specificity of the lead peptide inhibitor cyc-LHSPW was tested against a panel of cancer-associated proteases with wide-ranging substrate specificities (Fig. 5A). APN was the only protease inhibited by cyc-LHSPW with chymotrypsin, trypsin, PSA, KLK7, aminopeptidase A, and the exopeptidase FAP all having Ki values above 100 μM. Having assessed selectivity for purified APN, we next evaluated the ability of cyc-LHSPW to preferentially bind to cells that express surface APN using flow cytometry (Fig. 5B). […] The expression of cell surface-associated APN was examined in the androgen receptor negative neuroendocrine prostate cancer cell lines PC3 and DU145 using a commercially available antibody. […] The peptide was next tested on frozen PC3 and DU145 tumor xenografts sections.
(§5) Figure 5 Determining the specificity of cyc-LHSPW for APN. (A) The cyc-LHSPW peptide was specific inhibitor of APN when compared to a panel of proteases. (B) Fluorescence microscopy of frozen PC3 (left) and DU145 (right) xenograft sections with cyc-LHSPW-(Gly)4-FITC. Sections were incubated with 250 nM of cyc-LHSPW-(Gly)4-FITC overnight and then visualized. The merged fluoresence channels are cyc-LHSPW-(Gly)4-FITC (green) and nuclei (DAPI, blue). (C) Analysis of APN inhibitor binding to PC3 (left) and DU145 cells (right) by flow cytometry. […]

PC3 cells [4] = assay: Flow cytometry binding to APN-expressing PC3 cells; assay type: cell-based; conditions: 500 nmol/L, 60 minutes, 4 °C
Experimental: as §4, §5

[5] = system: frozen PC3 and DU145 tumor xenografts sections; assay: Fluorescence microscopy of frozen tumor xenograft sections; conditions: 250 nM overnight, PC3 vs DU145 sections
Experimental: as §4, §5

T1 sequence (P15144 66-967): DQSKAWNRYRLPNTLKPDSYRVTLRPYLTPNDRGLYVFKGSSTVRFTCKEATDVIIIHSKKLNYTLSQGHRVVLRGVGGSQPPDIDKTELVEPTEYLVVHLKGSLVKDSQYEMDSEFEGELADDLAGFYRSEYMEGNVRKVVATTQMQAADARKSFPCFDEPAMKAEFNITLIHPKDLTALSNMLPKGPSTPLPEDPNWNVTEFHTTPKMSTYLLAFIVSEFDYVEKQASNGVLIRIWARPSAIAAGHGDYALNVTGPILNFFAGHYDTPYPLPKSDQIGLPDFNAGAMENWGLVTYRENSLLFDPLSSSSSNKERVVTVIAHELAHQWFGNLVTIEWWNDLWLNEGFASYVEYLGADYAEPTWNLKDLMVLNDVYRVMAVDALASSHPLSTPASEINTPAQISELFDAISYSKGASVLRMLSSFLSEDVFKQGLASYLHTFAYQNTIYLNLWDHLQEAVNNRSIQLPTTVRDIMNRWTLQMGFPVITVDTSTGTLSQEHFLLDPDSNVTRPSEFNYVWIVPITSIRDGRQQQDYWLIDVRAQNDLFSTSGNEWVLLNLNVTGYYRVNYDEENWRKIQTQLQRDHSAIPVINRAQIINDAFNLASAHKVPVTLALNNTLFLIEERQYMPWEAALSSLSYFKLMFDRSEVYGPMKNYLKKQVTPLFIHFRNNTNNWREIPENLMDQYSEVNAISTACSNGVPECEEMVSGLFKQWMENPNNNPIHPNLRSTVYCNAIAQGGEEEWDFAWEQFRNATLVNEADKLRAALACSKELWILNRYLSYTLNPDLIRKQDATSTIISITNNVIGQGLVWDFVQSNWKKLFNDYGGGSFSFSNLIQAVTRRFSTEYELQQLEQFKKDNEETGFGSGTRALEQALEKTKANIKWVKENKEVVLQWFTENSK

CCCC[C@@H]1NC(=O)[C@@H](N)CSSC[C@@H](C(=O)O)NC(=O)[C@H](Cc2c[nH]c3ccccc23)NC(=O)[C@@H]2CCCN2C(=O)[C@H](CO)NC(=O)[C@H](Cc2c[nH]cn2)NC1=O [cyc-nHSPW, Cys-nHSPW-Cys] (H-C[Nle]HSPWC-OH; disulfide 1-7; N-terminus and C-terminus assumed)
clonogenic survival (DU145 cells [1]): No significant biological effect | inhibition of APN (in words) (hAPN (aminopeptidase N)): eliminated any measureable inhibition of APN | clonogenic survival (PC3 cells [2]): No significant biological effect

cyc-LHSPW-(Gly)4-FITC: fluorophore-containing version of cyc-LHSPW with a (Gly)4-FITC group coupled to the C-terminal cysteine (CLHSPWCGGGG-{FITC′}; disulfide 1-7)
binding to cells by flow cytometry (DU145 cells [3]): no noticeable labelling of DU145 cells | binding to cells by flow cytometry (PC3 cells [4]): selectively labeled the APN-expressing PC3 cells over the APN-null DU145 cells | binding to cells by flow cytometry (PC3 cells [4]; listed as FITC labeled cyc-LHSPW): preferentially bound to PC3 cells | labeling of xenograft sections by fluorescence microscopy [5]: Preferential labeling of the PC3 xenograft section was evident
